Measurements from patent publication US12692274B2, “Tetrahydroisoquinoline derivatives for the treatment of red blood disorders and inflammatory diseases” (Sanofi, priority 2020, dated 2026).
Several values for one entry are separate records, joined by “and”; a condition that tells them apart may be missing. Equal entries are not always repeated.

How the values were obtained:
[1] = target: HIS-Keap1 full length / Biotin-Nrf2 (16-mer) (Homo sapiens, UniProt Q14145); assay: biochemical
[2] = system: NQO1 activation in BEAS-2B cells; assay: BEAS-2B cellular MTT assay of NQO1 activation, 0% HSA; type: cell-based
How it was run: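 For the 0% HSA condition, cells were seeded into collagen plates in HSA-free medium. Culture was BEAS-2B in BEBM plus BEGM SingleQuots lacking GA-1000, held under 70% confluence, at a seeding density reaching 95-100% confluence by 48 h.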

[3] = system: NQO1 activation in BEAS-2B cells; assay: BEAS-2B cellular MTT assay of NQO1 activation, 0.3% HSA; type: cell-based
How it was run: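 MTT read-out in BEAS-2B cells grown in BEBM with SingleQuots, no GA-1000, kept below 70% confluence; plates coated with collagen, with 0.3% or 0% HSA medium, seeded to 95-100% confluency at 48 h, 37 °C, 5% CO2.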

[4] = Homo sapiens, Serum Free W, read-out: BEAS EC50 (nM) Serum Free W
[5] = Serum Free W, read-out: BEAS EC50 (nM) Serum Free W
[6] = BEAS+ W, read-out: BEAS+ W EC50
[7] = Homo sapiens, BEAS+ W, read-out: BEAS+ W EC50
[8] = Homo sapiens, serum free, read-out: BEAS EC50 (nM) serum free
[9] = Homo sapiens, BEAS+, read-out: BEAS+ EC50
[10] = serum free, read-out: BEAS EC50 (nM) serum free

HIS-Keap1 full length / Biotin-Nrf2 (16-mer), sequence (Q14145 whole entry): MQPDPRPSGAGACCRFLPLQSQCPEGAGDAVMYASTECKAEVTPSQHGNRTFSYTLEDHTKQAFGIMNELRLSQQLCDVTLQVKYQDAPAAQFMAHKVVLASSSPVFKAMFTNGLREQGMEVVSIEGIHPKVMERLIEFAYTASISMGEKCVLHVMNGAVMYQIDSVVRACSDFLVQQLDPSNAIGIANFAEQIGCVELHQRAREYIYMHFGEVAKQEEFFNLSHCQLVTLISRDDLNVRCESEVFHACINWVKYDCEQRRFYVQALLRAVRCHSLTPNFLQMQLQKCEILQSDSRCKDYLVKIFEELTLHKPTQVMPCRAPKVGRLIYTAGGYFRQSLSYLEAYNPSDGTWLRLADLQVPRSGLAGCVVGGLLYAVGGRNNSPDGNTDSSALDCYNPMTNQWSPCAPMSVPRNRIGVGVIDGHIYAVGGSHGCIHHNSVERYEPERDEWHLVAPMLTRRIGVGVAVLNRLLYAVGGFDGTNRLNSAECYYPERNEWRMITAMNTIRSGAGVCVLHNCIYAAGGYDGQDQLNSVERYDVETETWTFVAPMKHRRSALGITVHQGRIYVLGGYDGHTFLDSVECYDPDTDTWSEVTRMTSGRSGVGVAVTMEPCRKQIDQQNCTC

Compound | IC50 [1] | EC50 [2, 4] [nM] | EC50 [2, 5] [nM] | EC50 [3, 6] | EC50 [3, 7] [nM] | EC50 [2, 8] [nM] | EC50 [3, 9] [nM] | EC50 [2, 10] | EC50 ([3]; BEAS+, read-out: BEAS+ EC50)
C[C@@H](C(=O)O)[C@H]1c2ccc(nc2)OCC/C=C/Cc2ccc(cc2)C(=O)N2CCc3ccc1cc3C2 [Compound 66] | 31.9 nM and 29.5 nM | 20.6 | 27.6 | 55.6 nM | 39.3 | – | – | – | –
Cc1c2ccc3c1nnn3CCCCCOc1cc(F)c(c(F)c1)C(=O)N1CCc3ccc(cc3C1)C2CC(=O)O (centres unmarked) [Compound 314] | 4.4 nM and 1.8 nM | – | – | – | – | 2.6 | 109 | – | –
O=C(O)C[C@@H]1c2ccc(nc2)OCCCCCc2ccc(cc2)C(=O)N2CCc3ccc1cc3C2 [Compound 173] | 12.5 nM and 12.4 nM | – | – | – | – | 3.7 | 12.8 | 4.3 nM | 13.1 nM
Cc1c2ccc3c1nnn3CCCCCOc1ccc(c3ccccc13)C(=O)N1CCc3ccc(cc3C1)C2CC(=O)O (centres unmarked) [Compound 283] | 1.1 nM and 1.7 nM | – | – | – | – | 450 | 418 | – | –
C[C@@H](C(=O)O)[C@H]1c2ccc3c(c2)CN(CC3)C(=O)c2c(F)cc(cc2F)OCCCCCCn2nnc3cc1ccc32 [Compound 258] | 4.9 nM | – | – | – | – | 9080 | 2640 | 9480 nM | 2530 nM
Cc1cc2ccc1C(=O)N1CCc3ccc(cc3C1)C(CC(=O)O)c1cnc(cc1C)OCCCCC2 (centres unmarked) [Compound 163] | 2.4 nM | – | – | – | – | 2.6 | 10 | 3.3 nM | 9.3 nM
Cc1c2ccc3c1nnn3CCCCCCc1ccc(c(F)c1)C(=O)N1CCc3ccc(cc3C1)C2CC(=O)O (centres unmarked) [Compound 272] | 1.1 nM and 1.3 nM | – | – | – | – | 2.5 | 3.3 | – | –
O=C(O)CC1c2ccc3c(c2)CN(CC3)C(=O)c2ccc(cc2F)OCCCCCCn2nnc3cc1ccc32 (centres unmarked) [Compound 322] | 0.8 nM and 1 nM | – | – | – | – | 176 | 231 | – | –
Cc1c2n(C)c3ccc(cc13)CCCCCCn1nnc3c(C)c(cnc31)[C@@H](CC(=O)O)c1ccc3c(c1)CN(CC3)C2=O [Compound 63] | 0.5 nM and 0.4 nM | 0.7 | 0.9 | 3.7 nM and 3.5 nM | 2.8 | – | – | – | –
Cc1c2ccc3c1nnn3CCCCCCc1ccc(cc1OC(F)F)C(=O)N1CCc3ccc(cc3C1)[C@@H]2CC(=O)O [Compound 37] | 1 nM and 0.8 nM | 18.1 | 18.2 | 72.3 nM | 100 | – | – | – | –
Cc1c2ccc3c1nnn3CCCCCc1ccc3c(c1)c(cn3C)C(=O)N1CCc3ccc(cc3C1)C2CC(=O)O (centres unmarked) [Compound 362, 2-(5,33-dimethyl-2-oxo-1,5,15,16,17-pentazaheptacyclo[22.5.3.26,9.118,22.03,7.015,19.027,31]pentatriaconta-3,6,8,16,18(33),19,21,24(32),25,27(31),34-undecaen-23-yl)acetic Acid] | 50 nM and 47.3 nM | – | – | – | – | 3250 | > 10000 | 3760 nM | –
Cc1c2ccc3c1nnn3CCCCCCc1ccc(cc1)C(=O)N1CCc3ccc(cc3C1)[C@H]2CC(=O)O [Compound 202] | 7.2 nM and 6.8 nM and 7.1 nM | – | – | – | – | 58.2 | 200 | 55.5 nM and 69.1 nM | 298 nM and 338 nM
O=C(O)CC1c2cnc(nc2)OCCCCc2ccc(c(Cl)c2)C(=O)N2CCc3ccc1cc3C2 (centres unmarked) [Compound 226] | 245 nM | – | – | – | – | > 10000 | > 10000 | – | –
Cc1nc2ccc1C(CC(=O)O)c1ccc3c(c1)CN(CC3)C(=O)c1ccc(cc1)CCCCCO2 (centres unmarked) [Compound 150] | 113 nM and 106 nM | – | – | – | – | 103 | 164 | 147 nM | 188 nM
C[C@H](C(=O)O)[C@@H]1c2ccc(nc2)OCCCCCc2ccc(cc2)C(=O)N2CCc3ccc1cc3C2 (single isomer, unassigned) [Compound 127] | 3.8 nM and 3.9 nM | – | – | – | – | 0.3 | 0.4 | – | 0.6 nM
O=C(O)CC1c2ccc3c(c2)CN(CC3)C(=O)c2ccc(cn2)OCCCCCCn2nnc3c(Cl)c1ccc32 (centres unmarked) [Compound 214] | 2.3 nM and 2.1 nM | – | – | – | – | 245 | 234 | 132 nM | 241 nM

Compound | IC50 [1] | EC50 [2, 4] [nM] | EC50 [2, 5] [nM] | EC50 [3, 6] | EC50 [3, 7] [nM] | EC50 [2, 8] [nM] | EC50 [3, 9] [nM] | EC50 [2, 10] | EC50 ([3]; BEAS+, read-out: BEAS+ EC50)
Cc1c2ccc3c1nnn3CCCCCCc1ccc(c3ncccc13)C(=O)N1CCc3ccc(cc3C1)[C@@H]2CC(=O)O [Compound 50] | 0.2 nM and 0.3 nM | 57.3 | 47.6 | 138 nM | 89.7 | – | – | – | –
Cc1c2ccc3c1nnn3CCCCCCc1ccc(cc1F)C(=O)N1CCc3ccc(cc3C1)C2CC(=O)O (centres unmarked) [Compound 264] | 2.7 nM and 2.9 nM | – | – | – | – | 3.7 | 5.4 | – | –
Cc1c2n(C)c3ccc(cc13)C/C=C\CCCn1nnc3c(C)c(cnc31)[C@@H](CC(=O)O)c1ccc3c(c1)CN(CC3)C2=O [Compound 65] | 1.5 nM and 1.6 nM | 3.7 | 2.7 | 23.9 nM | 18.4 | – | – | – | –
C[C@H](C(=O)O)[C@H]1c2ccc3c(c2)CN(CC3)C(=O)c2ccc(cc2)OCCCCCCn2nnc3cc1ccc32 [Compound 323] | 1.2 nM and 1.8 nM | – | – | – | – | 135 | 386 | – | –
C[C@H](C(=O)O)[C@H]1c2ccc3c(c2)CN(CC3)C(=O)c2ccc(cc2)OCCCCCn2nnc3cc1ccc32 [Compound 234] | 49.1 nM | – | – | – | – | 1840 | 3860 | 1410 nM | 5840 nM
Cc1cc2ccc1C(=O)N1CCc3ccc(cc3C1)C(CC(=O)O)c1ccc3c(nnn3CCCCCO2)c1C (centres unmarked) [Compound 335] | 2.5 nM and 2.9 nM and 6.4 nM and 1.3 nM | – | – | – | – | 35 | 36.1 | – | –
Cc1c2ccc3c1nnn3CCCCCOc1ccc(c(F)c1F)C(=O)N1CCc3ccc(cc3C1)C2CC(=O)O (centres unmarked) [Compound 306] | 0.1 nM and < 0.1 nM | – | – | – | – | 68.1 | 134 | – | 90.1 nM
Cc1c2ccc3c1nnn3CCCCCCOc1ncc(cn1)C(=O)N1CCc3ccc(cc3C1)C2CC(=O)O (centres unmarked) [Compound 377] | 5.7 nM and 5.8 nM | – | – | – | – | 2940 | 3170 | 2650 nM | 3210 nM
Cc1cc2cc3c1CCN(C3)C(=O)c1ccc(cc1)CCCCCCn1nnc3c(C)c(cnc31)[C@H]2CC(=O)O [Compound 93] | 1.3 nM and 1.4 nM | 3.4 | 2.7 | 17.1 nM | 15.4 | – | – | – | –
Cc1c2ccc3c1nnn3CCOC/C=C/c1ccc(c(F)c1)C(=O)N1CCc3ccc(cc3C1)C2CC(=O)O (centres unmarked) [Compound 365] | 3.4 nM and 3.6 nM | 90 | 171 | 214 nM | 188 | – | – | – | –
COc1cc2ccc1C(=O)N1CCc3ccc(cc3C1)[C@H](CC(=O)O)c1cnc3c(nnn3CCCCCC2)c1C [Compound 94] | 1.1 nM and 1.3 nM | 36.8 | 63.2 | 52.3 nM | 51 | – | – | – | –
Cc1cc2ccc1C(=O)N1CCc3ccc(cc3C1)[C@@H](CC(=O)O)c1cnc(cc1C)OCCCCC2 [Compound 100] | 1.1 nM and 1 nM | 1.7 | 1.6 | 9.1 nM | 8 | – | – | – | –
Cc1c2ccc3c1nnn3CCCOCCOc1cc(F)c(c(F)c1)C(=O)N1CCc3ccc(cc3C1)[C@@H]2[C@@H](C)C(=O)O [Compound 367] | 0.4 nM | – | – | – | – | 10.3 | 12.2 | 12.5 nM | 12.3 nM
C[C@H](C(=O)O)[C@@H]1c2ccc(nc2)OCCCCCc2cc(F)c(c(F)c2)C(=O)N2CCc3ccc1cc3C2 [Compound 162] | 2.1 nM and 2 nM | – | – | – | – | 0.6 | 0.8 | – | –
O=C(O)CC1c2ccc3c(c2)CN(CC3)C(=O)c2ccc(cn2)CCCCCn2nnc3c(Cl)c1ccc32 (centres unmarked) [Compound 220] | 1.4 nM and 1.2 nM | – | – | – | – | 178 | 314 | 182 nM | 346 nM
